# Experimental data: US20210330611A1, “THERAPY FOR NEUROLOGICAL DISEASES/DISORDERS” (priority 2020, published 2021)
# Counter-ions that a name gives are not always drawn. Like-named read-outs stand apart in the source and are kept apart here.
# What was measured:
# primary rat microglia [1] = assay: Cell toxicity (dead cells, size <150 μm2) in LPS assay
# [2] = system: fibrin- and LPS-induced microglia activation; assay: cells; format: cell-based, rat
# primary rat microglia [3] = assay: Cell toxicity (dead cells, size <150 μm2) in coated fibrin (cFib) assay;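 note: share of dead cells sized under 150 µm2 at 10 µM in fibrin-stimulated microglia HTS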
# [4] = system: LPS-induced microglia activation; assay: Image-based assay of LPS-induced microglia activation (HTS and dose response); format: cell-based, rat; conditions: for inhibition at 10 µM: Rattus norvegicus, Microglia, read-out: LPS % inhibition
# [5] = system: fibrin-induced microglia activation; assay: Image-based assay of fibrin-induced microglia activation (HTS and dose response); format: cell-based, rat; conditions: for inhibition at 10 µM: Rattus norvegicus, Microglia, read-out: Fibrin % inhibition
# [6] = primary microglia HTS, LPS stimulation, decreased size (<150 μm^2) as marker of toxicity
# [7] = quadrant by fibrin and LPS inhibition in HTS of 1907 compounds
# [8] = primary microglia HTS, fibrin stimulation, decreased size (<150 μm^2) as marker of toxicity
# [9] = 48 h, primary microglia HTS, LPS stimulation, increased cell size (>800 μm^2) as marker of activation
# [10] = primary microglia HTS, fibrin stimulation, increased cell size (>800 μm^2) as marker of activation
# [11] = primary HTS, 10 μM, LPS assay, dead cells size <150 μm2
# [12] = primary HTS, 10 μM, fibrin assay, dead cells size <150 μm2
# [13] = primary HTS, 10 μM, LPS-stimulated primary microglia
# [14] = primary HTS, 10 μM, fibrin-stimulated primary microglia
# [15] = primary microglia HTS, LPS stimulation, increased cell size (>800 μm^2) as marker of activation
# [16] = primary microglia HTS, 10 μM, LPS assay, cell size <150 μm^2 as marker of toxicity
# [17] = HTS of 1907 compounds, quadrant by fibrin and LPS inhibition
# [18] = primary microglia HTS, 10 μM, fibrin assay, cell size <150 μm^2 as marker of toxicity
# [19] = primary microglia HTS, 10 μM, LPS-stimulated, cell size >800 μm^2 as marker of activation
# [20] = primary microglia HTS, 10 μM, fibrin-stimulated, cell size >800 μm^2 as marker of activation
compound,measurement,setting,value
CCOC(=O)[C@H](CCc1ccccc1)N[C@@H](C)C(=O)N1Cc2cc(OC)c(OC)cc2C[C@H]1C(=O)O [Moexipril],LPS % cell toxicity,primary rat microglia [1]; [6],1%
same,Quadrant (FIG. 5b),[2]; [7],Q4
same,Fibrin % cell toxicity,primary rat microglia [3]; [8],1%
same,inhibition at 10 µM,[4]; [9],9%
same,inhibition at 10 µM,[5]; [10],-29%
C=CC1=C(C(=O)O)N2C(=O)[C@@H](NC(=O)/C(=N\OCC(=O)O)c3csc(N)n3)[C@H]2SC1 [Cefixime],LPS % cell toxicity,primary rat microglia [1]; [11],0%
same,Quadrant (FIG. 5b),"[2]; primary HTS, 10 μM",Q4
same,Fibrin % cell toxicity,primary rat microglia [3]; [12],1%
same,inhibition at 10 µM,[4]; [13],-8%
same,inhibition at 10 µM,[5]; [14],0%
"CCN(CC)CCNC(=O)COc1ccc(OC)cc1 [Mefexamide, Mefexamide Hydrochloride]",LPS % cell toxicity,primary rat microglia [1]; [6],0%
same,Quadrant (FIG. 5b),[2]; [7],Q4
same,Fibrin % cell toxicity,primary rat microglia [3]; [8],0%
same,LPS % inhibition,[4]; [15],−2%
same,Fibrin % inhibition,[5]; [10],−13%
CC(C)C[C@H]1C(=O)N2CCC[C@H]2[C@]2(O)O[C@](NC(=O)[C@@H]3C=C4c5cccc6[nH]c(Br)c(c56)C[C@H]4N(C)C3)(C(C)C)C(=O)N12 [Bromocriptine Mesylate],LPS % cell toxicity,primary rat microglia [1]; [11],0%
same,Quadrant (FIG. 5b),"[2]; primary HTS, 10 μM",Q4
same,Fibrin % cell toxicity,primary rat microglia [3]; [12],1%
same,inhibition at 10 µM,[4]; [13],24%
same,inhibition at 10 µM,[5]; [14],26%
CC1(O)CCC(C(C)(C)O)CC1.O (stereo not drawn) [Terpene Hydrate],LPS % cell toxicity,primary rat microglia [1]; [16],0%
same,Quadrant (FIG. 5b),[2]; [17],Q4
same,Fibrin % cell toxicity,primary rat microglia [3]; [18],1%
same,LPS % inhibition,[4]; [19],8%
same,Fibrin % inhibition,[5]; [20],−6%
"O=C1CCO1 [Beta-propiolactone, Propiolactone]",LPS % cell toxicity,primary rat microglia [1]; [11],0%
same,Quadrant (FIG. 5b),"[2]; primary HTS, 10 μM",Q4
same,Fibrin % cell toxicity,primary rat microglia [3]; [12],1%
same,LPS % inhibition,[4]; [13],8%
same,Fibrin % inhibition,[5]; [14],−12%
OCCN1C[C@H](O)[C@@H](O)[C@H](O)[C@H]1CO [Miglitol],LPS % cell toxicity,primary rat microglia [1]; [6],0%
same,Quadrant (FIG. 5b),[2]; [7],Q4
same,Fibrin % cell toxicity,primary rat microglia [3]; [8],0%
same,inhibition at 10 µM,[4]; [9],13%
same,inhibition at 10 µM,[5]; [10],-9%
CCCCN1CCCC[C@H]1C(=O)Nc1c(C)cccc1C [Levobupivacaine],LPS % cell toxicity,"primary rat microglia [1]; primary microglia HTS, LPS stimulation, toxicity = cell size <150 μm2",0%
same,Quadrant (FIG. 5b),[2]; [7],Q4
same,Fibrin % cell toxicity,"primary rat microglia [3]; primary microglia HTS, fibrin stimulation, toxicity = cell size <150 μm2",1%
same,inhibition at 10 µM,"[4]; 48 h, primary microglia HTS, LPS stimulation, activation = cell size >800 μm2",-10%
same,inhibition at 10 µM,"[5]; primary microglia HTS, fibrin stimulation, activation = cell size >800 μm2",34%
CC(=O)NCc1c(I)c(NC(C)=O)c(I)c(C(=O)O)c1I [Iodamide],LPS % cell toxicity,primary rat microglia [1]; [6],1%
same,Quadrant (FIG. 5b),[2]; [7],Q1
same,Fibrin % cell toxicity,primary rat microglia [3]; [8],0%
same,inhibition at 10 µM,[4]; [9],67%
same,inhibition at 10 µM,[5]; [10],41%
O=C(O)c1ccc[n+]([O-])c1 [Oxiniacic Acid],LPS % cell toxicity,primary rat microglia [1]; [6],0%
same,Quadrant (FIG. 5b),[2]; [7],Q4
same,Fibrin % cell toxicity,primary rat microglia [3]; [8],1%
same,inhibition at 10 µM,[4]; [9],12%
same,inhibition at 10 µM,[5]; [10],-6%
Chiniofon,LPS % cell toxicity,primary rat microglia [1]; [11],1%
same,Quadrant (FIG. 5b),"[2]; primary HTS, 10 μM",Q4
same,Fibrin % cell toxicity,primary rat microglia [3]; [12],1%
same,LPS % inhibition,[4]; [13],−1%
same,Fibrin % inhibition,[5]; [14],−52%
CN(C)CCc1c[nH]c2ccc(C[C@H]3COC(=O)N3)cc12 [Zolmitriptan],LPS % cell toxicity,primary rat microglia [1]; [16],0%
same,Quadrant (FIG. 5b),[2]; [17],Q4
same,Fibrin % cell toxicity,primary rat microglia [3]; [18],1%
same,inhibition at 10 µM,[4]; [19],18%
same,inhibition at 10 µM,[5]; [20],9%
Cc1ncc(COP(=O)([O-])[O-])c(CN(CCN(CC(=O)[O-])Cc2c(COP(=O)([O-])[O-])cnc(C)c2[O-])CC(=O)[O-])c1[O-].[H+].[H+].[H+].[Mn+2].[Na+].[Na+].[Na+] [Mangafodipir Trisodium],LPS % cell toxicity,primary rat microglia [1]; [6],0%
same,Quadrant (FIG. 5b),[2]; [7],Q4
same,Fibrin % cell toxicity,primary rat microglia [3]; [8],1%
same,LPS % inhibition,[4]; [15],11%
same,Fibrin % inhibition,[5]; [10],1%
CN1CCN(C(=O)OC2c3nccnc3C(=O)N2c2ccc(Cl)cn2)CC1 (stereo not drawn) [Zopiclone],LPS % cell toxicity,primary rat microglia [1]; [16],0%
same,Quadrant (FIG. 5b),[2]; [17],Q4
same,Fibrin % cell toxicity,primary rat microglia [3]; [18],1%
same,inhibition at 10 µM,[4]; [19],5%
same,inhibition at 10 µM,[5]; [20],11%
S=C1SCN(Cc2ccccc2)CN1Cc1ccccc1 [Sulbentine],LPS % cell toxicity,primary rat microglia [1]; [16],0%
same,Quadrant (FIG. 5b),[2]; [17],Q4
same,Fibrin % cell toxicity,primary rat microglia [3]; [18],1%
same,inhibition at 10 µM,[4]; [19],13%
same,inhibition at 10 µM,[5]; [20],48%
